{"source": "ChEMBL document CHEMBL1127242", "about": "“Conformationally constrained HIV-1 protease inhibitors” (Bioorg Med Chem Lett, 1994)", "note": "pIC50: −log10 of the molar value.", "data": [{"target": "Human immunodeficiency virus type 1 protease (Human immunodeficiency virus 1, UniProt Q72874)", "assay": "Compound was tested for inhibitory activity against Human immunodeficiency virus (HIV-1) protease", "values": [{"smiles": "C[C@@H]1CC[C@@H](O)[C@H]1N1CC[C@@](Cc2ccccc2)(C[C@H](O)[C@H](Cc2ccccc2)NC(=O)OC(C)(C)C)C1=O", "pIC50": 7.85}, {"smiles": "CC(C)(C)OC(=O)N[C@@H](Cc1ccccc1)[C@@H](O)C[C@]1(Cc2ccccc2)CCN([C@@H]2CS(=O)(=O)Cc3ccccc32)C1=O", "pIC50": 7.77}, {"smiles": "CC(C)[C@@H](CO)N1CC[C@@](Cc2ccccc2)(C[C@H](O)[C@H](Cc2ccccc2)NC(=O)OC(C)(C)C)C1=O", "pIC50": 7.46}, {"smiles": "O=C(N[C@@H](Cc1ccccc1)[C@@H](O)C[C@@H](Cc1ccccc1)C(=O)N[C@H]1c2ccccc2C[C@H]1O)O[C@H]1CCOC1", "pIC50": 10.22}, {"smiles": "CC(C)(C)OC(=O)N[C@@H](Cc1ccccc1)[C@@H](O)C[C@]1(Cc2ccccc2)CCN([C@@H]2CSCc3ccccc32)C1=O", "pIC50": 6.95}, {"smiles": "O=C(N[C@@H](Cc1ccccc1)[C@@H](O)C[C@]1(Cc2ccccc2)CCN([C@@H]2CS(=O)(=O)Cc3ccccc32)C1=O)O[C@H]1CCOC1", "pIC50": 8.74}, {"smiles": "CC(C)(C)OC(=O)N[C@@H](Cc1ccccc1)[C@@H](O)CC1(Cc2ccccc2)CCN([C@H]2c3ccccc3C[C@H]2O)C1=O", "note": "(single isomer, unassigned)", "pIC50": 7.43}]}]}
